In patent US10314843B2, “Combinations for the treatment of neoplasms using quiescent cell targeting and inhibitors of mitosis” (Felicitex Therapeutics, Inc., priority 2016, dated 2019):
pEC50: −log10 of the molar value.

How the values were obtained:
Assay type in all cases: cell-based
SW620 cells = assay: FACS cell cycle distribution by DNA content (propidium iodide), SW620 cells in FBS- media; details: 24 hours in FBS- media, AZ191 2.5, 5, 10 μM, Compound I-7 1.25, 2.5, 5 μM
Experimental: Cell cultures were seeded into 6-well plates at 3×10^5-6×10^5 cells/well; the plated number of cells depended on cell size and rate of proliferation, aiming for approximately 50% confluency. After seeding, the cells were allowed to attach for 24 hours while incubated at 37° C. in a humidified 5% CO2 atmosphere, and then treated with compounds for desired amount of time (usually 24 hours) incubating under same conditions. Then the cells were harvested by trypsinization, pooled with the floating cells, washed in PBS, and fixed in 70% ice-cold ethanol overnight. […] […] The complete protocol and composition of buffers are described in the literature (Darzynkiewicz Z, Juan G, and Srour E F (2004) Differential Staining of DNA and RNA (2004). Current Protocols in Cytometry, Chapter 7:Unit 7.3).
The SW620 cells were cultured and treated as described in Example 1. For propidium iodide (PI) staining, manufacturer's protocol supplied with the Guava Cell Cycle Reagent for Flow Cytometry (EMD Millipore) was followed. The measurements were performed with Guava PCA-96 flow cytometer (EMD Millipore) using the green laser for excitation at 535 nm and monitoring emission at 617 nm.
The SW620 cells were cultured, treated, and analyzed as described in Examples 1. […]

H1975 cells = assay: CellTiter-Glo cell viability assay, H1975 cells; details: Homo sapiens, NCI-H1975, H1975 cells
Text: (§1) The following cell lines were obtained from ATCC and cultured according to the ATCC recommendations: DMS273—small cell lung cancer cell line; H1975—non-small cell lung cancer cell line harboring L858R and T790M mutations in EGFR TK; A549—a non-small cell lung cancer cell line with wild type EGFR; LNCap—prostate cancer cell line; SW620—colon cancer cell line; MiaPaCa2—pancreatic cancer cell line; PANC1—pancreatic cancer cell line; OVCAR3—ovarian cancer cell line; SK-OV-3—ovarian cancer cell line.
(§2) For viability analysis, cells were seeded into 96-well plates at 2×10^3-6×10^3 cells/well; the plated number of cells depended on cell size and rate of proliferation aiming for approximately 50% confluency. After seeding, the cells were allowed to attach for 24 hours incubated at 37° C. in a humidified 5% CO2 atmosphere.
(§3) The treatments were performed using at least 6 different concentrations of a compound in 1:3 serial dilutions in DMSO such that the DMSO concentration in the cell medium was <1%. The cell cultures were incubated for an additional 96 hours in 5% CO2 incubator at 37° C. Treatments were performed in triplicate. Results were analyzed by CellTiter-Glo™ Luminescent Cell Viability Assay (Promega, cat. #G7571) according to the manufacturer's instructions using Spectra MAX Gemini Spectrophotometer (Molecular Devices).

PANC1 cells = assay: CellTiter-Glo cell viability assay, PANC1 cells; details: Homo sapiens, PANC-1, PANC1 cells
Text: as §1, §2, §3

DMS273 cells = assay: CellTiter-Glo cell viability assay, DMS273 cells; details: Homo sapiens, DMS-273, DMS273 cells
Text: as §1, §2, §3

A549 cells = assay: CellTiter-Glo cell viability assay, A549 cells; details: Homo sapiens
Text: as §1, §2, §3

| Structure (SMILES) | fraction of cells in quiescent state (G0), based on fraction of cells in G0+G1 phase (SW620 cells) | pEC50 (H1975 cells; Compound I-7 not present) | pEC50 (H1975 cells; Compound I-7 present at 2 μM) | pEC50 (H1975 cells; Compound I-7 present at 4 μM) | pEC50 (PANC1 cells; Compound I-7 not present) | pEC50 (PANC1 cells; Compound I-7 present at 2 μM) | pEC50 (PANC1 cells; Compound I-7 present at 4 μM) | pEC50 (DMS273 cells; Compound I-7 not present) | pEC50 (DMS273 cells; Compound I-7 present at 2 μM) | pEC50 (DMS273 cells; Compound I-7 present at 4 μM) | pEC50 (A549 cells; Compound I-7 not present) | pEC50 (A549 cells; Compound I-7 present at 3 μM) | pEC50 (A549 cells; Compound I-7 present at 6 μM) |
| --- | --- | --- | --- | --- | --- | --- | --- | --- | --- | --- | --- | --- | --- |
| COc1cc(N2CCN(C)CC2)ccc1Nc1nccc(-c2cn(C)c3cnccc23)n1 [AZ191] | no decrease in fraction of cells in quiescent state (G0) | – | – | – | – | – | – | – | – | – | – | – | – |
| CC[C@@H]1C(=O)N(C)c2cnc(Nc3ccc(C(=O)NC4CCN(C)CC4)cc3OC)nc2N1C1CCCC1 [BI2536] | – | 7.33 | 7.76 | > 10.40 | 8.14 | 8.36 | 8.60 | 8.21 | 8.39 | 8.77 | 8.21 | 8.39 | 8.77 |
| C[C@@H](Oc1cc(-n2cnc3ccc(CN4CCN(C)CC4)cc32)sc1C(N)=O)c1ccccc1C(F)(F)F [GSK461364] | – | 5.72 | 6.01 | 6.24 | 6.30 | 6.52 | 6.70 | 6.37 | 6.62 | 6.92 | 5.92 | 6.30 | 6.70 |
